Test results published in ChEMBL document CHEMBL1909046, “DrugMatrix in vitro pharmacology data”.

Assays:
[1] = molecular target: T1, Cytochrome P450 1A2 (Homo sapiens, UniProt P05177)
T1 sequence (P05177 whole entry): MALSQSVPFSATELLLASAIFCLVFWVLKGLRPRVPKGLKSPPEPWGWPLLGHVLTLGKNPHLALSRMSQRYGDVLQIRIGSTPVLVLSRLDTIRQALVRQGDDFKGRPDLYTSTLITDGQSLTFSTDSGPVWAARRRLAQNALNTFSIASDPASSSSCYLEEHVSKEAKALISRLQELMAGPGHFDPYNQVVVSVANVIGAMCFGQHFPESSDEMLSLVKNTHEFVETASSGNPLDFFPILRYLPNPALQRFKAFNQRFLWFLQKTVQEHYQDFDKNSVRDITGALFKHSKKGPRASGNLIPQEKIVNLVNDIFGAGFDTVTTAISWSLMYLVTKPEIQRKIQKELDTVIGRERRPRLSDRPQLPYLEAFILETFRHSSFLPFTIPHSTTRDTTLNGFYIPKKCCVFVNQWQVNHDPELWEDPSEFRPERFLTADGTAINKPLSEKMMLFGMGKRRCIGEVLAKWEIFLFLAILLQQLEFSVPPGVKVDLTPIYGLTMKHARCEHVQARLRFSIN

[2] = molecular target: T2, Cysteinyl leukotriene receptor 1 (Homo sapiens, UniProt Q9Y271); format: cell membranes, CHO-K1, Membrane; settings: cho-k1
T2 sequence (Q9Y271 whole entry): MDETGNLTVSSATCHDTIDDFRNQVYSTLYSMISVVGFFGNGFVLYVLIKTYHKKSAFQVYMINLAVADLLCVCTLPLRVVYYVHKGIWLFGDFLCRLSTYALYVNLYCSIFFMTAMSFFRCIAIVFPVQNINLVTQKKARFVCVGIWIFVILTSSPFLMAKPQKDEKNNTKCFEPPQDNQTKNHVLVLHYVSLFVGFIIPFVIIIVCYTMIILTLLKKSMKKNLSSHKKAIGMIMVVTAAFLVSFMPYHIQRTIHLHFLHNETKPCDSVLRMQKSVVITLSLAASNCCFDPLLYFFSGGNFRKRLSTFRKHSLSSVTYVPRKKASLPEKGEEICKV

[3] = molecular target: Cytochrome P450 2C9 (Homo sapiens, UniProt P11712); settings: bti-tn-5b1-4
Cytochrome P450 2C9, sequence (P11712 whole entry): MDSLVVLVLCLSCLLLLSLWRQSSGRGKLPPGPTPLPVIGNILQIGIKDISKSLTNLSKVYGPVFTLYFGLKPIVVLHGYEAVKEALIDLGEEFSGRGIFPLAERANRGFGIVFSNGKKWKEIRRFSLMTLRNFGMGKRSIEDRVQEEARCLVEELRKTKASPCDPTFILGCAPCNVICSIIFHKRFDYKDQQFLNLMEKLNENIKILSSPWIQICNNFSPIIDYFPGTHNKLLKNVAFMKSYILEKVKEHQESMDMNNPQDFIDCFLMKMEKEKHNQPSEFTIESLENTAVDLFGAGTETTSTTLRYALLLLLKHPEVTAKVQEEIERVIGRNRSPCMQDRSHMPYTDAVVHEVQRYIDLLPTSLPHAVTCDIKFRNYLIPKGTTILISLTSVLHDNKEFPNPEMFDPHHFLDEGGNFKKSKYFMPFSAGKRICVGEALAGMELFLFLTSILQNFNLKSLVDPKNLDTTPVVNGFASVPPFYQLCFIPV

[4] = molecular target: Glycine receptor (Rattus norvegicus, UniProt P22771+P24524+P07727+P20781); format: cell membranes, Wistar, Spinal cord, Membrane
[5] = molecular target: T3, B2 bradykinin receptor (Homo sapiens, UniProt P30411); format: cell membranes, Membrane; settings: chem-1
T3 sequence (P30411 whole entry): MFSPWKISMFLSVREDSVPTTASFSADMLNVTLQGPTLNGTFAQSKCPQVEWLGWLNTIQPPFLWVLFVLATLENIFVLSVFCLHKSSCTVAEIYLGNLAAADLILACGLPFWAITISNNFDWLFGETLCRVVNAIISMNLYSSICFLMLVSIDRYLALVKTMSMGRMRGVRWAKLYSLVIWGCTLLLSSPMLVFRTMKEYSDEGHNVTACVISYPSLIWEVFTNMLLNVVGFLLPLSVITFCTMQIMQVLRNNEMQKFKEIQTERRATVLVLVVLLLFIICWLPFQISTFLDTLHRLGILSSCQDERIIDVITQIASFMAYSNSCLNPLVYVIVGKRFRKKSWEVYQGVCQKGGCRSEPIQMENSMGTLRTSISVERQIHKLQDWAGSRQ

[6] = molecular target: T4, Androgen receptor (Rattus norvegicus, UniProt P15207)
T4 sequence (P15207 whole entry): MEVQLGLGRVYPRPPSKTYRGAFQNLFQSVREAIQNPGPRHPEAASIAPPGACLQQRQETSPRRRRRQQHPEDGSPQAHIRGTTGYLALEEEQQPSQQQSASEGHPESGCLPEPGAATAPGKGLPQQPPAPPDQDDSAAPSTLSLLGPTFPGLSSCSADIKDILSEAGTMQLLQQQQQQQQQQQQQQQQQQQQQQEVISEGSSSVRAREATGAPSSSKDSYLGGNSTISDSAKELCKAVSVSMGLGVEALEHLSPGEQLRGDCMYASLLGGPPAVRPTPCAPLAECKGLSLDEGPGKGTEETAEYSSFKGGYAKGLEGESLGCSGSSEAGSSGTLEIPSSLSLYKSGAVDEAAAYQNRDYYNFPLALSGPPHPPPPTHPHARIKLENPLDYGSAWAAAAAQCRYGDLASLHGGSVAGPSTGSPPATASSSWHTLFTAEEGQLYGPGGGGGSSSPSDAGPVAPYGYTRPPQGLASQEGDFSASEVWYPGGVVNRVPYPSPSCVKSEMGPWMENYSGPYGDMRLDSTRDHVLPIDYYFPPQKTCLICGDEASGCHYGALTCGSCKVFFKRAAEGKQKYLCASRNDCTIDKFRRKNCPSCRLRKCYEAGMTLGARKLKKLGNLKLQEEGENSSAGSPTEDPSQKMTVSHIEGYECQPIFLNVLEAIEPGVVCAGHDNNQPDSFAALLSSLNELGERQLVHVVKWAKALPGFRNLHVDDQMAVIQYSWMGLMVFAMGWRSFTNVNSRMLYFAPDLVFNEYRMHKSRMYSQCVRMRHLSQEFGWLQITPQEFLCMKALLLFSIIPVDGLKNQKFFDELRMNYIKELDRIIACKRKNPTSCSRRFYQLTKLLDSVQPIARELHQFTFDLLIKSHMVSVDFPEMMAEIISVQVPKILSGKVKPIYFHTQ

[7] = molecular target: Cytochrome P450 2D6 (Homo sapiens, UniProt P10635)
Cytochrome P450 2D6, sequence (P10635 whole entry): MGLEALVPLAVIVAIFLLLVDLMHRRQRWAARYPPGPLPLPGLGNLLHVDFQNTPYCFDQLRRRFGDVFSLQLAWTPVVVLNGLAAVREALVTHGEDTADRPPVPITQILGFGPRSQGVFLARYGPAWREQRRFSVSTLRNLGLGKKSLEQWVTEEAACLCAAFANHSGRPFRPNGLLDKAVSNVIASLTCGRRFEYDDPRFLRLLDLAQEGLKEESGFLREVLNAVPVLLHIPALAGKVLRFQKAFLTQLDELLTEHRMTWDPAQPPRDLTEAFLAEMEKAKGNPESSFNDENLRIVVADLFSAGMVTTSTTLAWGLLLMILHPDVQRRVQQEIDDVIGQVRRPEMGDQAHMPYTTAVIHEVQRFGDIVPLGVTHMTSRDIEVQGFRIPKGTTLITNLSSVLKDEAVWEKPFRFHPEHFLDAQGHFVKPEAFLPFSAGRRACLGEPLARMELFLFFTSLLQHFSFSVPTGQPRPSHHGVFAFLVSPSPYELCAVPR
Further: in other assays of this panel Not Active means under 50% inhibition at 10 µM.

## O=c1[nH]c2ccccc2c2ccccc12
[1]
  IC50: 16 nM
[2]
  IC50: Not Active
[3]
  IC50: Not Active
  Ki: Not Active
[4]
  IC50: Not Active
[5]
  IC50: Not Active
[6]
  IC50: Not Active

## CN(Cc1cc(Br)cc(Br)c1N)C1CCCCC1 [BROMHEXINE]
[2]
  IC50: Not Active
[3]
  IC50: Not Active
  Ki: Not Active
[7]
  IC50: 196 nM
[4]
  IC50: Not Active
[5]
  IC50: Not Active

## CC(C)Cn1cnc2c(N)nc3ccccc3c21 [IMIQUIMOD]
[2]
  IC50: Not Active
[3]
  IC50: Not Active
  Ki: Not Active
[4]
  IC50: Not Active
[5]
  IC50: Not Active
[6]
  IC50: Not Active

## POVIDONE
[2]
  IC50: Not Active
  Ki: Not Active
[3]
  IC50: Not Active
  Ki: Not Active
[4]
  IC50: Not Active
  Ki: Not Active
[5]
  IC50: Not Active
  Ki: Not Active
[6]
  IC50: Not Active
  Ki: Not Active

## COc1ccccc1OCCNCC(O)COc1cccc2[nH]c3ccccc3c12 (centres undefined) [CARVEDILOL]
[2]
  IC50: Not Active
[3]
  IC50: Not Active
  Ki: Not Active
[4]
  IC50: Not Active
[5]
  IC50: Not Active
[6]
  IC50: Not Active

## CARBOXYMETHYLCELLULOSE
[2]
  IC50: Not Active
  Ki: Not Active
[3]
  IC50: Not Active
  Ki: Not Active
[4]
  IC50: Not Active
  Ki: Not Active
[5]
  IC50: Not Active
  Ki: Not Active
[6]
  IC50: Not Active
  Ki: Not Active

## Nc1ccc(C(=O)O)c(O)c1 [AMINOSALICYLIC ACID]
[2]
  IC50: Not Active
[3]
  IC50: Not Active
  Ki: Not Active
[4]
  IC50: Not Active
[5]
  IC50: Not Active
[6]
  IC50: Not Active

## COC(=O)C[C@](O)(CCC(C)(C)O)C(=O)O[C@@H]1C(OC)=C[C@]23CCCN2CCc2cc4c(cc2[C@H]13)OCO4 [HARRINGTONINE]
[2]
  IC50: Not Active
[3]
  IC50: Not Active
  Ki: Not Active
[4]
  IC50: Not Active
[5]
  IC50: Not Active
[6]
  IC50: Not Active

## C[N+](C)(C)CCOC(N)=O.[Cl-] [CARBACHOL]
[2]
  IC50: Not Active
[3]
  IC50: Not Active
  Ki: Not Active
[4]
  IC50: Not Active
[5]
  IC50: Not Active
[6]
  IC50: Not Active

## OC[C@H]1OC2C3[C@@H](CO)OC(O[C@H]4[C@H](O)[C@@H](O)[C@@H](O[C@H]5[C@H](O)[C@@H](O)[C@@H](O[C@H]6[C@H](O)[C@@H](O)[C@@H](O[C@H]7[C@H](O)[C@@H](O)[C@@H](O[C@H]8[C@H](O)[C@@H](O)[C@@H](O[C@H]9[C@H](O)[C@@H](O)C(OC1[C@H](O)[C@H]2O)O[C@@H]9CO)O[C@@H]8CO)O[C@@H]7CO)O[C@@H]6CO)O[C@@H]5CO)O[C@@H]4CO)[C@H](O)[C@H]3O
[2]
  IC50: Not Active
[3]
  IC50: Not Active
  Ki: Not Active
[4]
  IC50: Not Active
[5]
  IC50: Not Active
[6]
  IC50: Not Active

## CCN1CCN(c2cc3c(cc2F)c(=O)c(C(=O)O)cn3C2CC2)CC1 [ENROFLOXACIN]
[2]
  IC50: Not Active
[3]
  IC50: Not Active
  Ki: Not Active
[4]
  IC50: Not Active
[5]
  IC50: Not Active
[6]
  IC50: Not Active

## Cc1cc(C(C)(C)C)c(O)c(C)c1CC1=NCCN1 [OXYMETAZOLINE]
[2]
  IC50: Not Active
[3]
  IC50: Not Active
  Ki: Not Active
[7]
  IC50: 200 nM
[4]
  IC50: Not Active
[5]
  IC50: Not Active
[6]
  IC50: Not Active

## C[C@]12CC[C@@H](O)C[C@@H]1CC[C@@H]1[C@@H]2CC[C@]2(C)C(=O)CC[C@@H]12 [ANDROSTERONE]
[2]
  IC50: Not Active
[3]
  IC50: Not Active
  Ki: Not Active
[4]
  IC50: Not Active
[5]
  IC50: Not Active
[6]
  IC50: Not Active

## CC(=O)[C@]1(O)Cc2c(O)c3c(c(O)c2[C@@H](O[C@H]2C[C@H](N)[C@H](O)[C@H](C)O2)C1)C(=O)c1ccccc1C3=O [IDARUBICIN]
[2]
  IC50: Not Active
[3]
  IC50: Not Active
  Ki: Not Active
[4]
  IC50: Not Active
[5]
  IC50: Not Active
[6]
  IC50: Not Active

## COPPER(II) OXIDE
[2]
  IC50: Not Active
  Ki: Not Active
[3]
  IC50: Not Active
  Ki: Not Active
[4]
  IC50: Not Active
  Ki: Not Active
[5]
  IC50: Not Active
  Ki: Not Active
[6]
  IC50: Not Active
  Ki: Not Active

## CCO [ALCOHOL]
[2]
  IC50: Not Active
[3]
  IC50: Not Active
  Ki: Not Active
[4]
  IC50: Not Active
[5]
  IC50: Not Active
[6]
  IC50: Not Active

## CCCCCCNC(=O)n1cc(F)c(=O)[nH]c1=O [CARMOFUR]
[2]
  IC50: Not Active
[3]
  IC50: Not Active
  Ki: Not Active
[7]
  IC50: 5000 nM
[4]
  IC50: Not Active
[5]
  IC50: Not Active

## COc1cc(/C=C/C(=O)O)ccc1O [FERULATE]
[2]
  IC50: Not Active
[3]
  IC50: Not Active
  Ki: Not Active
[4]
  IC50: Not Active
[5]
  IC50: Not Active
[6]
  IC50: Not Active

## CC(=O)Nc1ccc2c(c1)Cc1ccccc1-2 [2-ACETYLAMINOFLUORENE]
[1]
  IC50: 16 nM
[2]
  IC50: Not Active
[3]
  IC50: Not Active
  Ki: Not Active
[4]
  IC50: Not Active
[5]
  IC50: Not Active

## C=C(Cl)Cl [1,1-DICHLOROETHENE]
[2]
  IC50: Not Active
[3]
  IC50: Not Active
  Ki: Not Active
[4]
  IC50: Not Active
[5]
  IC50: Not Active
[6]
  IC50: Not Active

## c1ccc2c(c1)Nc1ccccc1S2 [PHENOTHIAZINE]
[1]
  IC50: 16 nM
[2]
  IC50: Not Active
[3]
  IC50: Not Active
  Ki: Not Active
[4]
  IC50: Not Active
[5]
  IC50: Not Active

## C[C@H](C(=O)O)c1ccc2oc(-c3ccc(F)cc3)nc2c1 [FLUNOXAPROFEN]
[2]
  IC50: Not Active
[3]
  IC50: Not Active
  Ki: Not Active
[4]
  IC50: Not Active
[5]
  IC50: Not Active
[6]
  IC50: Not Active

## C=CCN1CC[C@]23c4c5ccc(O)c4O[C@H]2/C(=N/N=C2\CC[C@@]4(O)[C@H]6Cc7ccc(O)c8c7[C@@]4(CCN6CC=C)[C@H]2O8)CC[C@@]3(O)[C@H]1C5 [NALOXONAZINE]
[2]
  IC50: Not Active
[3]
  IC50: Not Active
  Ki: Not Active
[4]
  IC50: Not Active
[5]
  IC50: Not Active
[6]
  IC50: Not Active

## C[N+](C)(C)CCOP(=O)([O-])OC[C@H](O)CO
[2]
  IC50: Not Active
[3]
  IC50: Not Active
  Ki: Not Active
[4]
  IC50: Not Active
[5]
  IC50: Not Active
[6]
  IC50: Not Active

## O=C(O)COC(=O)Cc1ccccc1Nc1c(Cl)cccc1Cl [ACECLOFENAC]
[2]
  IC50: Not Active
[3]
  IC50: Not Active
  Ki: Not Active
[4]
  IC50: Not Active
[5]
  IC50: Not Active
[6]
  IC50: Not Active
